From patent US12281122B1, “PI3K inhibitors” (Cogent Biosciences, Inc., priority 2023, dated 2025) come the findings set out here.

Assay [1] relates to T47D (PI3Kα-H1047R) cell line. Put plainly: HTRF phospho-AKT(S473) cell assay in T47D cells. The format is cell-based, human. In outline:
(§1)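 pAKT(S473) in lysates read by HTRF after a 2 h, 37 °C compound exposure (12-point 1:3 series, max 0.5% DMSO). SKBR3 (wild type, top 10 μM) received 70 ng/ml PDGF-BB during the final 15 min; T47D (H1047R, top 5 μM) was unstimulated. IC50 values derived from the dose-response.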

The test system of assay [2] is SKBR3 (PI3Kα-Wild Type) cell line. In words: HTRF phospho-AKT(S473) cell assay in SKBR3 cells. The format is cell-based, human. In outline:
as §1
On the technique in general: In TR-FRET formats the signal depends on donor and acceptor labels being close together.

Where [3] appears, read: Homo sapiens; HTRF phospho-AKT(S473), T47D (PI3Kα-H1047R) cells, 2 hours compound incubation.
[4] abbreviates: Homo sapiens, SK-BR-3; HTRF phospho-AKT(S473), SKBR3 (PI3Kα-Wild Type) cells, 2 hours compound incubation, PDGF-BB stimulated.
The mark [5] stands for this setting: Homo sapiens; T47D (PI3Kα-H1047R) cells, HTRF phospho-AKT(S473), 2 hours compound incubation.
[6] abbreviates: Homo sapiens, SK-BR-3; SKBR3 (PI3Kα-Wild Type) cells, HTRF phospho-AKT(S473), 2 hours compound incubation, PDGF-BB stimulated.

Usually IC50 stands for the midpoint of a concentration-inhibition curve. As to `C[C@@H](Nc1ccc(Cl)nc1C(=O)NS(C)(=O)=O)c1cc(F)cc2c(=O)n(C)c(N3CC[C@@H](Oc4cnn(C)c4)C3)nc12` [Compound 560, 6-chloro-3-(((R)-1-(6-fluoro-3-methyl-2-((R)-3-((1-methyl-1H-pyrazol-4-yl)oxy)pyrrolidin-1-yl)-4-oxo-3,4-dihydroquinazolin-8-yl)ethyl)amino)-N-(methylsulfonyl) picolinamide], the IC50 in assay [1] (setting [3]) was less than 250 nM; in assay [2] (setting [4]), 1000 to 5000 nM.

On to `Cc1cc([C@@H](C)Nc2ccc(Cl)nc2C(=O)NS(C)(=O)=O)c2nc(N3CCC[C@@H](c4ccc(C)nc4)C3)n(C)c(=O)c2c1` (relative stereo) [Compound 238, 6-chloro-3-(((R)-1-(3,6-dimethyl-2-((R*)-3-(6-methylpyridin-3-yl)piperidin-1-yl)-4-oxo-3,4-dihydroquinazolin-8-yl)ethyl)amino)-N-(methylsulfonyl) picolinamide], for which the IC50 was less than 250 nM in assay [1] (setting [5]) and 1000 to 5000 nM in assay [2] (setting [6]).

As to `Cc1cc([C@@H](C)Nc2ccc(Cl)nc2C(=O)NS(C)(=O)=O)c2nc(N3CC[C@H](Oc4ccc(F)cc4)C3)n(C)c(=O)c2c1` (relative stereo) [Compound 691, 6-chloro-3-(((R)-1-(2-((R*)-3-(4-fluorophenoxy)pyrrolidin-1-yl)-3,6-dimethyl-4-oxo-3,4-dihydroquinazolin-8-yl)ethyl)amino)-N-(methylsulfonyl) picolinamide], the IC50 in assay [1] (setting [3]) is 250 to 500 nM; in assay [2] (setting [4]), no less than 5000 nM.

As for `Cc1cc([C@@H](C)Nc2ccc(Cl)nc2C(=O)NS(C)(=O)=O)c2nc(N3Cc4cn(C(F)F)nc4C3)n(C)c(=O)c2c1` [Compound 176, (R)-6-chloro-3-((1-(2-(2-(difluoromethyl)-2,6-dihydropyrrolo[3,4-c]pyrazol-5(4H)-yl)-3,6-dimethyl-4-oxo-3,4-dihydroquinazolin-8-yl)ethyl)amino)-N-(methylsulfonyl) picolinamide], the IC50 in assay [1] (setting [5]) was less than 250 nM; in assay [2] (setting [6]), 1000 to 5000 nM.

For `Cc1cc([C@@H](C)Nc2ccc(Cl)nc2C(=O)NS(C)(=O)=O)c2nc(N3C[C@@H]4[C@H](C3)[C@H]4c3cnn(C4CC4)n3)n(C)c(=O)c2c1` [Compound 559, 6-chloro-3-(((R)-1-(2-((1R,5S,6R)-6-(2-cyclopropyl-2H-1,2,3-triazol-4-yl)-3-azabicyclo[3.1.0]hexan-3-yl)-3,6-dimethyl-4-oxo-3,4-dihydroquinazolin-8-yl)ethyl)amino)-N-(methylsulfonyl) picolinamide], the IC50 in assay [1] (setting [3]) is 250 to 500 nM; in assay [2] (setting [4]), no less than 5000 nM.

Turning to `Cc1cc([C@@H](C)Nc2ccc(Cl)nc2C(=O)NS(C)(=O)=O)c2nc(N3CCN(c4cnn(C)c4)CC3)n(C)c(=O)c2c1` [Compound 188, (R)-6-chloro-3-((1-(3,6-dimethyl-2-(4-(1-methyl-1H-pyrazol-4-yl)piperazin-1-yl)-4-oxo-3,4-dihydroquinazolin-8-yl)ethyl)amino)-N-(methylsulfonyl) picolinamide], the IC50 was less than 250 nM in assay [1] (setting [5]) and 1000 to 5000 nM in assay [2] (setting [6]).

For the compound `Cc1cc([C@@H](C)Nc2ccc(Cl)nc2C(=O)NS(C)(=O)=O)c2nc(N3C[C@@H]4[C@H](C3)[C@H]4c3ccc(C)nn3)n(C)c(=O)c2c1` [Compound 441, 6-chloro-3-(((R)-1-(3,6-dimethyl-2-((1R,5S,6R)-6-(6-methylpyridazin-3-yl)-3-azabicyclo [3.1.0]hexan-3-yl)-4-oxo-3,4-dihydroquinazolin-8-yl)ethyl)amino)-N-(methylsulfonyl) picolinamide], the IC50 in assay [1] (setting [3]) is less than 250 nM; in assay [2] (setting [4]), 1000 to 5000 nM.

For the compound `Cc1cc([C@@H](C)Nc2ccc(Cl)nc2C(=O)NS(=O)(=O)C2COC2)c2nc(N3Cc4cn(-c5ccccc5C)nc4C3)n(C)c(=O)c2c1` [Compound 628, (R)-6-chloro-3-((1-(3,6-dimethyl-4-oxo-2-(2-(o-tolyl)-2,6-dihydropyrrolo[3,4-c]pyrazol-5(4H)-yl)-3,4-dihydroquinazolin-8-yl)ethyl)amino)-N-(oxetan-3-ylsulfonyl)picolinamide], the results for the IC50 in assay [1] (setting [3]) and in assay [2] (setting [4]) were 250 to 500 nM and no less than 5000 nM, respectively.

In the case of `CC(=O)N1CCC(c2ccc(-c3nc4c([C@@H](C)Nc5ccc(Cl)nc5C(=O)NS(C)(=O)=O)cc(C)cc4c(=O)n3C)c(F)c2)CC1` [Compound 780, (R)-3-((1-(2-(4-(1-acetylpiperidin-4-yl)-2-fluorophenyl)-3,6-dimethyl-4-oxo-3,4-dihydroquinazolin-8-yl)ethyl)amino)-6-chloro-N-(methylsulfonyl) picolinamide], the IC50 was less than 250 nM in assay [1] (setting [3]) and 1000 to 5000 nM in assay [2] (setting [4]).

On to `C[C@@H](Nc1ccc(Cl)nc1C(=O)NS(C)(=O)=O)c1cc(C(F)(F)F)cc2c(=O)n(C)c(N3C[C@@H]4[C@H](C3)[C@H]4c3ccn(C)n3)nc12` [Compound 452, 6-chloro-3-(((R)-1-(3-methyl-2-((1R,5S,6R)-6-(1-methyl-1H-pyrazol-3-yl)-3-azabicyclo[3.1.0]hexan-3-yl)-4-oxo-6-(trifluoromethyl)-3,4-dihydroquinazolin-8-yl)ethyl)amino)-N-(methylsulfonyl) picolinamide], for which the IC50 was 250 to 500 nM in assay [1] (setting [3]) and 1000 to 5000 nM in assay [2] (setting [4]).

In the case of `Cc1cc([C@@H](C)Nc2ccc(Cl)nc2C(=O)NS(C)(=O)=O)c2nc(N3CCC(c4cc5ccccn5n4)CC3)n(C)c(=O)c2c1` [Compound 692, (R)-6-chloro-3-((1-(3,6-dimethyl-4-oxo-2-(4-(pyrazolo[1,5-a]pyridin-2-yl)piperidin-1-yl)-3,4-dihydroquinazolin-8-yl)ethyl)amino)-N-(methylsulfonyl) picolinamide], the 50% inhibitory concentration (IC50) in assay [1] (setting [3]) is 250 to 500 nM; in assay [2] (setting [4]) it was no less than 5000 nM.

Regarding `Cc1cc([C@@H](C)Nc2ccc(Cl)nc2C(=O)NS(C)(=O)=O)c2nc(N3CC[C@@H](c4ccn(C)n4)CC3(C)C)n(C)c(=O)c2c1` (relative stereo) [Compound 324, 6-chloro-3-(((R)-1-(2-((R*)-2,2-dimethyl-4-(1-methyl-1H-pyrazol-3-yl)piperidin-1-yl)-3,6-dimethyl-4-oxo-3,4-dihydroquinazolin-8-yl)ethyl)amino)-N-(methylsulfonyl) picolinamide], the IC50 was less than 250 nM in assay [1] (setting [5]) and no less than 5000 nM in assay [2] (setting [6]).

As to `Cc1cc([C@@H](C)Nc2ccc(Cl)nc2C(=O)NS(C)(=O)=O)c2nc(N3CCN(c4ncc(Cl)cn4)CC3)n(C)c(=O)c2c1` [Compound 530, (R)-6-chloro-3-((1-(2-(4-(5-chloropyrimidin-2-yl)piperazin-1-yl)-3,6-dimethyl-4-oxo-3,4-dihydroquinazolin-8-yl)ethyl)amino)-N-(methylsulfonyl) picolinamide], the figures for the IC50 in assay [1] (setting [3]) and in assay [2] (setting [4]) were 250 to 500 nM and no less than 5000 nM, respectively.

Turning to `Cc1cc([C@@H](C)Nc2ccc(Cl)nc2C(=O)NS(C)(=O)=O)c2nc(N3[C@@H]4CC[C@H]3C[C@H](n3ncc5ccccc53)C4)n(C)c(=O)c2c1` [Compound 695, 3-(((R)-1-(2-((1R,3S,5S)-3-(1H-indazol-1-yl)-8-azabicyclo[3.2.1]octan-8-yl)-3,6-dimethyl-4-oxo-3,4-dihydroquinazolin-8-yl)ethyl)amino)-6-chloro-N-(methylsulfonyl) picolinamide], the IC50 in assay [1] (setting [3]) is 250 to 500 nM; in assay [2] (setting [4]), no less than 5000 nM.
